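All cell lines were grown in 96-well plates and treated with compound for 48 hours. TGI marks complete inhibition of growth.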
Legend:
Assay in all cases: NCI-60 cell line screen, 48 h
[1] = tested on: 786-0 renal
[2] = tested on: A498 renal
[3] = tested on: A549 NSCLC
[4] = tested on: BT-549 breast
[5] = tested on: CAKI-1 renal
[6] = tested on: CCRF-CEM leukemia
[7] = tested on: COLO 205 colon
[8] = tested on: DU-145 prostate
[9] = tested on: EKVX NSCLC
[10] = tested on: HCC-2998 colon
[11] = tested on: HCT-116 colon
[12] = tested on: HCT-15 colon
[13] = tested on: HL-60(TB) leukemia
[14] = tested on: HOP-62 NSCLC
[15] = tested on: HOP-92 NSCLC
[16] = tested on: HS 578T breast
[17] = tested on: HT29 colon
[18] = tested on: IGROV1 ovarian
[19] = tested on: K-562 leukemia
[20] = tested on: KM12 colon
[21] = tested on: LOX IMVI melanoma
[22] = tested on: M14 melanoma
[23] = tested on: MALME-3M melanoma
[24] = tested on: MCF7 breast
[25] = tested on: MDA-MB-231 breast
[26] = tested on: MDA-MB-435
[27] = tested on: MDA-N
[28] = tested on: MOLT-4 leukemia
[29] = tested on: NCI-H226 lung
[30] = tested on: NCI-H23 lung
[31] = tested on: NCI-H460 lung
[32] = tested on: NCI/ADR-RES ovarian
[33] = tested on: OVCAR-3 ovarian
[34] = tested on: OVCAR-4 ovarian
[35] = tested on: OVCAR-5 ovarian
[36] = tested on: OVCAR-8 ovarian
[37] = tested on: PC-3 prostate
[38] = tested on: RPMI-8226 leukemia
[39] = tested on: SF-268 CNS
[40] = tested on: SF-295 CNS
[41] = tested on: SF-539 CNS
[42] = tested on: SK-MEL-2 melanoma
[43] = tested on: SK-MEL-28 melanoma
[44] = tested on: SK-MEL-5 melanoma
[45] = tested on: SN12C renal
[46] = tested on: SNB-19 CNS
[47] = tested on: SNB-75 CNS
[48] = tested on: SR leukemia
[49] = tested on: SW-620 colon
[50] = tested on: TK-10 renal
[51] = tested on: U251 CNS
[52] = tested on: UACC-257 melanoma
[53] = tested on: UO-31 renal
[54] = tested on: RXF 393 renal
[55] = tested on: SK-OV-3 ovarian
[56] = tested on: T-47D breast
[57] = tested on: UACC-62 melanoma

CCOC(=O)c1[nH]c2cccc3c2c1CC[C@H](NC(=O)C(F)(F)F)C3=O
TGI [1]: > 100 µM | TGI [2]: > 100 µM | TGI [3]: > 100 µM | TGI [4]: > 100 µM | TGI [5]: 28 µM | TGI [6]: > 100 µM | TGI [7]: > 100 µM | TGI [8]: > 100 µM | TGI [9]: 0.0531 µM | TGI [10]: > 100 µM | TGI [11]: > 100 µM | TGI [12]: > 100 µM | TGI [13]: > 100 µM | TGI [14]: 72.5 µM | TGI [15]: 69.4 µM | TGI [16]: 61.8 µM | TGI [17]: > 100 µM | TGI [18]: > 100 µM | TGI [19]: > 100 µM | TGI [20]: > 100 µM | TGI [21]: > 100 µM | TGI [22]: > 100 µM | TGI [23]: > 100 µM | TGI [24]: > 100 µM | TGI [25]: > 100 µM | TGI [26]: > 100 µM | TGI [27]: > 100 µM | TGI [28]: > 100 µM | TGI [29]: > 100 µM | TGI [30]: > 100 µM | TGI [31]: > 100 µM | TGI [32]: > 100 µM | TGI [33]: > 100 µM | TGI [34]: 80.5 µM | TGI [35]: > 100 µM | TGI [36]: > 100 µM | TGI [37]: > 100 µM | TGI [38]: > 100 µM | TGI [39]: > 100 µM | TGI [40]: 72.4 µM | TGI [41]: > 100 µM | TGI [42]: > 100 µM | TGI [43]: 0.0458 µM | TGI [44]: > 100 µM | TGI [45]: > 100 µM | TGI [46]: 46.3 µM | TGI [47]: 56.7 µM | TGI [48]: > 100 µM | TGI [49]: > 100 µM | TGI [50]: > 100 µM | TGI [51]: 72.7 µM | TGI [52]: > 100 µM | TGI [53]: > 100 µM

CC(=O)OCC12CCC3C4(C)CCCC(C)(C)C4CCC3(C)C1CC(C1=CC(=O)OC1O)O2 (configuration not stated)
TGI [1]: 2.28 µM | TGI [3]: > 10 µM | TGI [5]: 2.81 µM | TGI [6]: > 10 µM | TGI [7]: 4.18 µM | TGI [8]: 6.64 µM | TGI [9]: 5.92 µM | TGI [10]: 3.67 µM | TGI [12]: 2.5 µM | TGI [13]: 2.76 µM | TGI [14]: 6.45 µM | TGI [17]: 3.58 µM | TGI [18]: 3.6 µM | TGI [19]: 4.72 µM | TGI [20]: 3.54 µM | TGI [21]: 2.54 µM | TGI [22]: 2.96 µM | TGI [23]: 2.44 µM | TGI [24]: > 10 µM | TGI [25]: 4.44 µM | TGI [27]: 2.89 µM | TGI [28]: 0.797 µM | TGI [30]: 3.86 µM | TGI [36]: 3.91 µM | TGI [37]: 2.63 µM | TGI [38]: > 10 µM | TGI [54]: 3.82 µM | TGI [40]: 5.56 µM | TGI [43]: 3.44 µM | TGI [44]: 3.44 µM | TGI [55]: 6.32 µM | TGI [45]: 3.09 µM | TGI [47]: 3.32 µM | TGI [48]: 0.846 µM | TGI [49]: 6.47 µM | TGI [56]: > 10 µM | TGI [50]: 3.31 µM | TGI [52]: 3.63 µM | TGI [57]: 4.82 µM
